We go through 2 compounds from paper PMC11811597, “Phenomics‐Based Discovery of Novel Orthosteric Choline Kinase Inhibitors” (Angewandte Chemie (International Ed. in English), 2025).

The target in assay [1] is T1, JUP (Homo sapiens, UniProt P14923).
T1 construct: endogenous in cells; host or cells: PBMC from healthy blood donors, cell extract
Nature of the assay: Competitive affinity-based chemoproteomics (UNC0965 matrix), PBMC cell extract. It is filed as binding. The following applies: 20 µM competitor, n=2. On the procedure: (§1) described.[2] Lysates were precleared with bead slurry (100 μL) for 30 min at 4 °C and then treated with UNC0638 or UNC0737 (20 μM) or DMSO control for 30 min at 4 °C followed by incubation with affinity matrix for 2 h at 4 °C. Affinity matrices were washed with buffer A (5 mL) and proteins eluted with 100 μL of 2x Laemmli sample buffer, 100 mM DTT, in PBS and heating for 10 min at 90 °C.
(§2) Eluents (70 µL) were diluted in 0.1 M Tris (pH 7.8) to 200 µL, reduced with 5 mM DTT for 30 min at RT, and alkylated with 20 mM iodoacetamide for 30 min at RT in the dark. Proteins were precipitated by sequential addition of MeOH (600 µL), CHCl3 (150 µL) and H2O (450 µL), pelleted (17,000 × g, 5 min), washed with further MeOH (2 × 600 µL), and re-pelleted. Air dried pellets were resuspended in 50 μL 6 M urea (pH 7.8) by vortexing and then diluted with 250 μL H2O before adding 1 µg trypsin for overnight incubation at 37 °C. The digests were acidified with FA (1% v/v final concentration), desalted using SOLA HRP SPE Cartridges (Thermo Fisher), eluted with 69% v/v MeCN, 0.1% v/v FA in H2O (600 μL) and dried in vacuo. Dried peptides were stored at -20 °C before resuspension in 2% v/v MeCN, 0.1% v/v FA in H2O (20 μL) for LC-MS/MS analysis.
(§3) LC-MS/MS Data Acquisition
(§4) Digested samples were analysed by nano-UPLC–MS/MS using a Dionex Ultimate 3000 nano UPLC fitted with an EASY spray column (75 μm × 500 mm, 2 μm particle size, Thermo Scientific), coupled to an Orbitrap Q Exactive instrument. A 60 min gradient of 0.1% (v/v) formic acid in 5 % (v/v) DMSO to 0.1% (v/v) formic acid with 35% (v/v) acetonitrile in 5 % (v/v) DMSO at a flow rate of 250 nL min−1 was used. The instrument was operated in a data-dependant mode, with survey scans acquired at a resolution of 70,000 at 200 m/z and the 15 most abundant precursors selected for HCD fragmentation with an AGC target of […] ions.
(§5) Raw data was processed using MaxQuant[3] version 2.0.1.0 and the reference complete human proteome FASTA file (UniProt, downloaded 05.08.21). Label Free Quantification (LFQ) and Match Between Runs were selected; Cysteine carbamidomethylation was selected as a fixed modification, and methionine oxidation and asparagine deamidation as variable modifications. Default settings for identification and quantification were used. Specifically, a minimum peptide length of 7, a maximum of 2 missed cleavage sites, and a maximum of 5 labelled amino acids per peptide were allowed.
(§6) Through selection of the ‘trypsin/P’ general setting, peptide bond cleavage at arginine or lysine (followed by any amino acid) was considered during in silico digest of the reference proteome. The allowed precursor and fragment ion mass tolerances were 4.5 ppm and 20 ppm, respectively. Peptides and proteins were identified utilizing a 0.01 false discovery rate, with “unique and razor peptides” […]
(§7) mode selected for both identification and quantification of proteins (razor peptides are uniquely assigned to protein groups and not to individual proteins).

Assay [2] addresses T2, CPSF6 (Homo sapiens, UniProt Q16630).
T2 construct: endogenous in cells; host or cells: PBMC from healthy blood donors, cell extract
The assay is described as above. Type of assay: binding. The following applies: 20 µM competitor, n=2. On the procedure: as §1, §2, §3, §4, §5, §6, §7

The target of assay [3] is T3, SCARB2 (Homo sapiens, UniProt Q14108).
T3 construct: endogenous in cells; host or cells: intact HepG2 cells
T3 sequence (Q14108 whole entry): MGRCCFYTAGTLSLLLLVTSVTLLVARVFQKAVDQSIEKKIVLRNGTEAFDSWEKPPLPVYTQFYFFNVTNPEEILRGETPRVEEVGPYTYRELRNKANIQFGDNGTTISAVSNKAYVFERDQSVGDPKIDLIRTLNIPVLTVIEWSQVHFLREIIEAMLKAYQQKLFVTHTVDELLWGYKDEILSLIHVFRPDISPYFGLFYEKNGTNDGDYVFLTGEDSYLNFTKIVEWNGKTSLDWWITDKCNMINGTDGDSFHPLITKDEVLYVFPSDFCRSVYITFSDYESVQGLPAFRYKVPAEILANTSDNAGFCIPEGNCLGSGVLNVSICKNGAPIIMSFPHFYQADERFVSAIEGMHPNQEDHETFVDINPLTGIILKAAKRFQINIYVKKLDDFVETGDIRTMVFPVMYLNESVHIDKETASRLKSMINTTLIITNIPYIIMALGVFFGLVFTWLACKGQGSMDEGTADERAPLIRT
Kind of assay: PISA thermal profiling, intact HepG2 cells. It is filed as cell-based. The following applies: 30 µM, 60 min, n=3. The method, then:
(§8) To further corroborate our findings, we next performed the proteome integral solubility alteration (PISA) assay in HepG2 human hepatoma cells that express high levels of CHKA. Conceptually building on the cellular thermal shift assay (CETSA) with mass spectrometry based detection,[19, 20] PISA leverages compound‐mediated stabilisation of target proteins without the need of chemical modification in intact cells. […]
(§9) Experiments were performed as described earlier with few modifications. In short, 3 replicates of intact HepG2 cells were treated with 30 µM UNC0638, UNC373 or corresponding volume of DMSO in medium-free experimental buffer for 60 min at 37 °C with end-over-end rotation. For lysates: Washed […]
(§10) end-over-end rotation. Each treated cell suspension or lysate was divided into 12 aliquots and subjected to a 12-step heat gradient from 44 °C to 64 °C. All the temperature points were pooled together to form […] individual samples. Soluble fraction was separated from precipitated proteins […]
(§11) by centrifugation at 30,000 × g for 20 min at 4 °C. The soluble fractions were collected to fresh tubes and further processed to be analysed with mass spectrometry. Sample handling, TMT labelling, LC-MS/MS analysis, protein identification and data analysis was performed as described earlier.[12] […]
(§12) […]

In assay [4] the target is T4, TGOLN2 (Homo sapiens, UniProt O43493).
T4 construct: endogenous in cells; host or cells: intact HepG2 cells
T4 sequence (O43493 22-437): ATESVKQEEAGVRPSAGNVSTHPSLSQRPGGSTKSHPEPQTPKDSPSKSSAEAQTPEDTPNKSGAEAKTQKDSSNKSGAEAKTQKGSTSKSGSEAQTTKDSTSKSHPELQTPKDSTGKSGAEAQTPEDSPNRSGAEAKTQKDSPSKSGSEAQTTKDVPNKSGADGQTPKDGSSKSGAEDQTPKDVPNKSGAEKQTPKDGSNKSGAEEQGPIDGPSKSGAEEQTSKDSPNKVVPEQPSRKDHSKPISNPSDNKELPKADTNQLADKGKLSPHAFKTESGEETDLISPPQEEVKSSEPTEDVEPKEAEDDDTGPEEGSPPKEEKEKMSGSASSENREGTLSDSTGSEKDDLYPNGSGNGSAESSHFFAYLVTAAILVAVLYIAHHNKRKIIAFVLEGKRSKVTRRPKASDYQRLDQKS
Nature of the assay: PISA thermal profiling, intact HepG2 cells. It is filed as cell-based. The following applies: 30 µM, 60 min, n=3. On the procedure: as §8, §9, §10, §11, §12

The target in assay [5] is CHKA (Homo sapiens, UniProt P35790). Nature of the assay: PISA thermal profiling, intact HepG2 cells. It is filed as cell-based. Also noted: endogenous in cells; host or cells: intact HepG2 cells. The following applies: 30 µM; for effect_CETSA_Intact (PISA amplitude), CHKA: 60 min, n=3. The method, then:
as §8
Experiments were performed as described earlier with few modifications. In short, 3 replicates of intact HepG2 cells were treated with 30 µM UNC0638, […] or corresponding volume of DMSO in medium-free experimental buffer for 60 min at 37 °C with end-over-end rotation. For lysates: Washed K562 cells were resuspended in medium-free experimental buffer and lysed by three freeze-thaw cycles. Lysate was centrifugated 20,000 × g for 20 min at 4 °C to remove cell debris. The cleared lysate was treated with 30 µM UNC0638, UNC0373 or corresponding volume of DMSO for 15 min at RT with end-over-end rotation. Each treated cell suspension or lysate was divided into 12 aliquots and subjected to a 12-step heat gradient from 44 °C to 64 °C. All the temperature points were pooled together to form […] individual samples. Soluble fraction was separated from precipitated proteins […]
as §11
Biosciences) was used for data analysis. The blood was obtained under an approved ethical review from the Regional Ethical Review Board in Stockholm, approval number 2015/2001-31/2. The donors gave their consent to participate after written and oral information.

Chain of CHKA (P35790 whole entry): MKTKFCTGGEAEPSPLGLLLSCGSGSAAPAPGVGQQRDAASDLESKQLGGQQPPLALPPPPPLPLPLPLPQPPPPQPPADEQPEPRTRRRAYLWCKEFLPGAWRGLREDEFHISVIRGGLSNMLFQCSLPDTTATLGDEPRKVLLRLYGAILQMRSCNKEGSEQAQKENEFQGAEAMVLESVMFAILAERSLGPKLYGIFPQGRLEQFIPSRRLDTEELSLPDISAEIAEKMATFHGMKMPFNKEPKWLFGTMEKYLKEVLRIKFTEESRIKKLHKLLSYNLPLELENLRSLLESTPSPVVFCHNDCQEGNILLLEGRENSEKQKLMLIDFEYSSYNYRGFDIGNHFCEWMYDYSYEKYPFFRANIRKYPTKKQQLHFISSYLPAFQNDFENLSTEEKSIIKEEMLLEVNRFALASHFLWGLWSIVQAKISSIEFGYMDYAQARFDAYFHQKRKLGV
T2 sequence (Q16630 whole entry): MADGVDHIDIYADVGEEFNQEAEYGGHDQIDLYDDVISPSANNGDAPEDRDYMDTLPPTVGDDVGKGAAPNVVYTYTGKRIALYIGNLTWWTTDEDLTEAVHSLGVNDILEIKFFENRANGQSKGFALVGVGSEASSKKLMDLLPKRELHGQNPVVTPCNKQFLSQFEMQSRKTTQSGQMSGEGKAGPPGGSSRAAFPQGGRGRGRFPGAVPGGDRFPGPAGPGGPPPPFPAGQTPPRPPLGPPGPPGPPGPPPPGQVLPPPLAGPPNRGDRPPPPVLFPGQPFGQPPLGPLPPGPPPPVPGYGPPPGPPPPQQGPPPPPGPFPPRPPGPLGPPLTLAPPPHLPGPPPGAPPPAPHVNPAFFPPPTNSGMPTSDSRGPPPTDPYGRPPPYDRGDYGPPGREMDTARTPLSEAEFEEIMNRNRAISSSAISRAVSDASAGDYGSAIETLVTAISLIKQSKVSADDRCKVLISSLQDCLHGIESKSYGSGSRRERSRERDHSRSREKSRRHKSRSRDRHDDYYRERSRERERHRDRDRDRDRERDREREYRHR
T1 sequence (P14923 whole entry): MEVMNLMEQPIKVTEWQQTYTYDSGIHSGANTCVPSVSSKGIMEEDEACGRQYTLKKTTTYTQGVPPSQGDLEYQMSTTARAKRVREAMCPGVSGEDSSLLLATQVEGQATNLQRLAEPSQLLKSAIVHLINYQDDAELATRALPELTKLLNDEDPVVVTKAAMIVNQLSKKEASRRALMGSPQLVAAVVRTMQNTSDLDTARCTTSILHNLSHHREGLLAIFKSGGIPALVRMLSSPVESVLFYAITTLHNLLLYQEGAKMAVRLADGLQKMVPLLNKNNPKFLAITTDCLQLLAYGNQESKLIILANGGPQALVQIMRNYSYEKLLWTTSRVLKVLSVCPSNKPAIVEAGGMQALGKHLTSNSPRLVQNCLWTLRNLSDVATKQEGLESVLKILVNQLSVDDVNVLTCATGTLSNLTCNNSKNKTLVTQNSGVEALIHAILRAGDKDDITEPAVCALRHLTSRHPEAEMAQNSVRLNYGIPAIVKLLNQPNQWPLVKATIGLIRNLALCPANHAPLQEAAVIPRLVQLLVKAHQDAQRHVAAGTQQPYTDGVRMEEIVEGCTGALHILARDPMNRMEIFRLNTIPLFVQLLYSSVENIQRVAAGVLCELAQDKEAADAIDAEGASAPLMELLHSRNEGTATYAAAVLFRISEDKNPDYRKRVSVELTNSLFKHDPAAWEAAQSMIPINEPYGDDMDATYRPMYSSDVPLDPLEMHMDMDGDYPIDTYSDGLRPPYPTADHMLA

For `COc1cc2c(NC3CCN(C(C)C)CC3)nc(C3CCCCC3)nc2cc1OCCCN1CCCC1` [UNC0638], in assay [1], the “FC vs DMSO (log2 competition), JUP” value is on record as -1.79. Besides, in assay [2], the “FC vs DMSO (log2 competition), CPSF6” value was -1.787. In addition, the “effect_CETSA_Intact (PISA amplitude), SCARB2” value in assay [3] stood at 0.251. Besides, the “effect_CETSA_Intact (PISA amplitude), TGOLN2” value in assay [4] amounted to 0.53. Moreover, in assay [5], the “stabilisation of CHKA (PISA)” value is listed as “significant stabilisation of CHKA” and the “effect_CETSA_Intact (PISA amplitude), CHKA” value was determined as 0.57.
Regarding `COc1cc2c(N(C)C3CCN(C(C)C)CC3)nc(C3CCCCC3)nc2cc1OCCCN1CCCC1` [UNC0737], the “FC vs DMSO (log2 competition), JUP” value in assay [1] is -0.7174. For the same compound, the “FC vs DMSO (log2 competition), CPSF6” value in assay [2] is listed as -0.1868. Moreover, in assay [3], the “effect_CETSA_Intact (PISA amplitude), SCARB2” value was 0.514. The “effect_CETSA_Intact (PISA amplitude), TGOLN2” value in assay [4] is on record as 0.571. In addition, in assay [5], the “stabilisation of CHKA (PISA)” value was “significant stabilisation of CHKA” and the “effect_CETSA_Intact (PISA amplitude), CHKA” value is recorded as 0.619.
